Assay results reported in US7265152B2 (ViroPharma Incorporated, priority 2002, dated 2007).
Where two headings read alike, the source gives them in different places.

Target: T1, HCV NS5B (Hepatitis C virus genotype 1b, UniProt Q9WMX2)
T1 construct: fusion protein, of which the carboxyl terminal 21 amino acids were removed to enhance its solubility; His tag (GSHHHHHH); made in house; host or cells: E. coli
Assay: Inhibition of viral RNA-dependent RNA polymerase (RdRp), in vitro biochemical assay
Design: species or system HCV genotype 1b virus (BB7)
Settings: read-out: HCV pol-BB7 IC50
Text: The HCV NS5B-directed RdRp activity was established and characterized in a standard in vitro biochemical assay using a purified HCV NS5B protein derived from the consensus sequence of a patient infected with HCV genotype 1b virus (BB7). (See Blight K J et al., Science. 2000, 290:1972-4). The NS5B consensus sequence was cloned and expressed in E. coli as a histidine tagged (GSHHHHHH) fusion protein, of which the carboxyl terminal 21 amino acids were removed to enhance its solubility.
In addition to evaluating their activity in the replicon assay, representative compounds within the scope of the present invention, as shown in examples 1-453 of Table 1, were also evaluated for antiviral activity using this assay. A measure of the inhibitory activity of compounds of the invention may be expressed as IC50 values. IC50 values represent the concentration of the compound at which 50% of the RdRp activity is inhibited. […] These low concentrations of test compounds required to achieve 50% inhibition of the RdRp activity indicate that the compounds of the invention are effective at inhibiting RNA synthesis by viral RdRp enzymes.

[1] = purified His-tagged NS5B (BB7), carboxyl terminal 21 amino acids removed
[2] = HCV NS5B polymerase, BB7 (genotype 1b), values given as range classes A-D
[3] = HCV NS5B RdRp, BB7 (genotype 1b), reported as class symbols

| Compound | IC50 [2] [nM] | IC50 [3] [nM] | further results |
| --- | --- | --- | --- |
| CNC(=O)c1c(-c2ccccc2)oc2ccc(OC(F)(F)F)cc12 [Example 2, 2-Phenyl-5-trifluoromethoxy-benzofuran-3-carboxylic acid methylamide] |  |  | IC50 [1]: 500 to 5000 nM |
| CNC(=O)c1c(-c2ccc(F)cc2)oc2ccc(OCC(F)(F)F)cc12 [Example 64, 2-(4-Fluoro-phenyl)-5-(2,2,2-trifluoro-ethoxy)-benzofuran-3-carboxylic acid methylamide] |  |  | IC50 [1]: 500 to 5000 nM |
| CNC(=O)c1c(-c2ccc(F)cc2)oc2cc(Nc3cc(C)nn3C)c(OC(C)C)cc12 [Example 127, 6-(2,5-Dimethyl-2H-pyrazol-3-ylamino)-2-(4-fluoro-phenyl)-5-isopropoxy-benzofuran-3-carboxylic acid methylamide] |  |  | IC50 (HCV NS5B RdRp, BB7 genotype 1b): 5000 to 30000 nM |
| CNC(=O)c1c(-c2ccc(F)cc2)oc2cc(N3CCOCC3)c(OCc3ccncc3)cc12 [Example 128, 2-(4-Fluoro-phenyl)-6-morpholin-4-yl-5-(pyridin-4-ylmethoxy)-benzofuran-3-carboxylic acid methylamide] |  |  | IC50 (HCV NS5B RdRp, BB7 genotype 1b): ≤ 500 nM |
| CNC(=O)c1c(-c2ccc(F)cc2)oc2cc(C#N)c(OC(C)C)cc12 [Example 129, 6-Cyano-2-(4-fluoro-phenyl)-5-isopropoxy-benzofuran-3-carboxylic acid methylamide] |  |  | IC50 (HCV NS5B RdRp, BB7 genotype 1b): ≤ 500 nM |
| CNC(=O)c1c(-c2ccc(F)cc2)oc2cc(OCc3ccccc3)c(OC(C)C)cc12 [Example 194, 6-Benzyloxy-2-(4-fluoro-phenyl)-5-isopropoxy-benzofuran-3-carboxylic acid methylamide] |  |  | IC50 (HCV NS5B RdRp, BB7, reported as range class): 500 to 5000 nM |
| CNC(=O)c1c(-c2ccc(F)cc2)oc2cc(N(C)S(C)(=O)=O)c(OCc3nccn3Cc3ccccc3)cc12 [Example 399, 5-(1-Benzyl-1H-imidazol-2-ylmethoxy)-2-(4-fluoro-phenyl)-6-(methanesulfonyl-methyl-amino)-benzofuran-3-carboxylic acid methylamide] | ≤ 500 |  |  |
| CNC(=O)c1c(-c2ccc(F)cc2F)oc2cc(-c3c(C)noc3C)c(OC)cc12 [Example 400, 2-(2,4-Difluoro-phenyl)-6-(3,5-dimethyl-isoxazol-4-yl)-5-methoxy-benzofuran-3-carboxylic acid methylamide] | ≤ 500 |  |  |
| CNC(=O)c1c(-c2ccc(F)cc2)oc2cc(C(C)=O)ccc12 [Example 411, 6-Acetyl-2-(4-fluoro-phenyl)-benzofuran-3-carboxylic acid methylamide] | 500 to 5000 |  |  |
| CNC(=O)c1c(-c2ccc(F)cc2)oc2cc(N(C)S(C)(=O)=O)c(OCC(C)(C)O)cc12 [Example 412, 2-(4-Fluoro-phenyl)-5-(2-hydroxy-2-methyl-propoxy)-6-(methanesulfonyl-methyl-amino)-benzofuran-3-carboxylic acid methylamide] | ≤ 500 |  |  |
| CCN(CC)C(=O)COc1cc2c(C(=O)NC)c(-c3ccc(F)cc3)oc2cc1N(C)S(C)(=O)=O [Example 413, 5-Diethylcarbamoyl-methoxy-2-(4-fluoro-phenyl)-6-(methanesulfonyl-methyl-amino)-benzofuran-3-carboxylic acid methylamide] | ≤ 500 |  |  |
| CCOc1cc2c(C(=O)NC)c(-c3ccc(F)cc3)oc2cc1-c1c(C)noc1C [Example 414, 6-(3,5-Dimethyl-isoxazol-4-yl)-5-ethoxy-2-(4-fluoro-phenyl)-benzofuran-3-carboxylic acid methylamide] | ≤ 500 |  |  |
| CNC(=O)c1c(-c2ccc(F)cc2)oc2cc(CN3CC(O)=C(C#N)C3=O)c(OC)cc12 [Example 431, 6-(3-Cyano-4-hydroxy-2-oxo-2,5-dihydro-pyrrol-1-ylmethyl)-2-(4-fluoro-phenyl)-5-methoxy-benzofuran-3-carboxylic acid methylamide] | ≤ 500 |  |  |
| CNC(=O)c1c(-c2ccc(F)cc2)oc2cc(-c3c(C)noc3C)c(OCCN3CCOCC3)cc12 [Example 433, 6-(3,5-Dimethyl-isoxazol-4-yl)-2-(4-fluoro-phenyl)-5-(2-morpholin-4-yl-ethoxy)-benzofuran-3-carboxylic acid methylamide] | ≤ 500 |  |  |
| CNC(=O)c1c(-c2ccc(F)cc2)oc2cc(-c3c(C)noc3C)c(OCCCN3CCCCC3)cc12 [Example 434, 6-(3,5-Dimethyl-isoxazol-4-yl)-2-(4-fluoro-phenyl)-5-(3-piperidin-1-yl-propoxy)-benzofuran-3-carboxylic acid methylamide] | 500 to 5000 |  |  |
| CNC(=O)c1c(-c2ccc(F)cc2)oc2cc(N(CC(C)O)S(C)(=O)=O)c(O)cc12 (centres unmarked) [Example 438, 2-(4-Fluoro-phenyl)-5-hydroxy-6-[(2-hydroxy-propyl)-methanesulfonyl-amino]-benzofuran-3-carboxylic acid methylamide] |  | ≤ 500 |  |
| CNC(=O)c1c(-c2ccc(F)cc2)oc2cc(N(CC(C)O)S(C)(=O)=O)c(OC)cc12 (centres unmarked) [Example 439, 2-(4-Fluoro-phenyl)-6-[(2-hydroxy-propyl)-methanesulfonyl-amino]-5-methoxy-benzofuran-3-carboxylic acid methylamide] |  | ≤ 500 |  |
| CCc1cc2c(C(=O)NC)c(-c3ccc(F)cc3)oc2cc1C1CCCN1C(C)=O (centres unmarked) [Example 440, 6-(1-Acetyl-pyrrolidin-2-yl)-5-ethyl-2-(4-fluoro-phenyl)-benzofuran-3-carboxylic acid methylamide] |  | ≤ 500 |  |
| CNC(=O)c1c(-c2ccc(F)cc2)oc2cc(C3CCCN3C(=O)C3CC3)c(OC(C)C)cc12 (centres unmarked) [Example 448, 6-(1-Cyclopropanecarbonyl-pyrrolidin-2-yl)-2-(4-fluoro-phenyl)-5-isopropoxy-benzofuran-3-carboxylic acid methylamide] |  | ≤ 500 |  |
| CNC(=O)c1c(-c2ccc(F)cc2)oc2cc(-c3nnco3)c(OC)cc12 [Example 449, 2-(4-Fluoro-phenyl)-5-methoxy-6-[1,3,4]oxadiazol-2-yl-benzofuran-3-carboxylic acid methylamide] |  | ≤ 500 |  |
| CNC(=O)c1c(-c2ccc(F)cc2)oc2cc(N(C)S(C)(=O)=O)c(-c3cccs3)cc12 [Example 450, 2-(4-Fluoro-phenyl)-6-(methanesulfonyl-methyl-amino)-5-thiophen-2-yl-benzofuran-3-carboxylic acid methylamide] |  | ≤ 500 |  |
| CNC(=O)c1c(-c2ccc(F)cc2)oc2cc(N(CC(O)c3ccc(F)cc3)S(C)(=O)=O)c(O)cc12 (centres unmarked) [Example 451, 2-(4-Fluoro-phenyl)-6-{[2-(4-fluoro-phenyl)-2-hydroxy-ethyl]-methanesulfonyl-amino}-5-hydroxy-benzofuran-3-carboxylic acid methylamide] |  | ≤ 500 |  |
| CNC(=O)c1c(-c2ccccc2)oc2ccc(O)cc12 [Example 453, 5-Hydroxy-2-phenyl-benzofuran-3-carboxylic acid methylamide] |  | 5000 to 30000 |  |
